# “And” between values parts separate entries of the source, which are not always exact repeats. Equal values may be shown once. Inconclusive results and toxic doses are left out.
# System: P388 leukemia ip, CD2F1 mice, survival T/C
# Assay: NCI In Vivo Anticancer Drug Screen. Data for tumor model P388 Leukemia (intraperitoneal) in CD2F1 (CDF1) mice
# Conditions: endpoint: median survival time, higher = longer survival
# Outline: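 Mice carrying the transplanted tumor received test compound or vehicle. Survival was recorded in each group, and the value is the treated-group measurement divided by that of the vehicle-treated control group.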
# [1] = dose: 6.25 mg/kg/injection, schedule: Q04DX003 (ip), vehicle: saline
# [2] = dose: 12.5 mg/kg/injection, schedule: Q01DX009 (ip), vehicle: saline
# [3] = dose: 100.0 mg/kg/injection, schedule: Q01DX009 (ip), vehicle: saline with Tween-80
# [4] = dose: 200.0 mg/kg/injection, schedule: Q01DX009 (ip), vehicle: saline with Tween-80
# [5] = dose: 400.0 mg/kg/injection, schedule: Q01DX009 (ip), vehicle: saline with Tween-80
# [6] = dose: 400.0 mg/kg/injection, schedule: Q04DX003 (ip), vehicle: saline with Tween-80
# [7] = dose: 50.0 mg/kg/injection, schedule: Q01DX005 (ip), vehicle: saline with Tween-80
# [8] = dose: 100.0 mg/kg/injection, schedule: Q01DX005 (ip), vehicle: saline with Tween-80
# [9] = dose: 200.0 mg/kg/injection, schedule: Q01DX005 (ip), vehicle: saline with Tween-80
# [10] = dose: 60.0 mg/kg/injection, schedule: Q01DX005 (ip), vehicle: saline with Tween-80
# [11] = dose: 240.0 mg/kg/injection, schedule: Q01DX005 (ip), vehicle: saline with Tween-80
# [12] = dose: 50.0 mg/kg/injection, schedule: Q01DX005 (ip), vehicle: saline
# [13] = dose: 100.0 mg/kg/injection, schedule: Q01DX005 (ip), vehicle: saline
# [14] = dose: 200.0 mg/kg/injection, schedule: Q01DX005 (ip), vehicle: saline
# [15] = dose: 25.0 mg/kg/injection, schedule: Q01DX009 (ip), vehicle: saline
# [16] = dose: 50.0 mg/kg/injection, schedule: Q01DX009 (ip), vehicle: saline with Tween-80
# [17] = dose: 50.0 mg/kg/injection, schedule: Q01DX009 (ip), vehicle: saline
# [18] = dose: 50.0 mg/kg/injection, schedule: Q01DX009 (ip), vehicle: Klucel (hydroxypropylcellulose) (HPC)
# [19] = dose: 120.0 mg/kg/injection, schedule: Q01DX005 (ip), vehicle: saline with Tween-80
structure (smiles),measurement,setting,value
O=C(Nc1c(Cl)cccc1Cl)OCCOc1ccc(Cl)cc1Cl,T/C,"dose: 60.0 mg/kg/injection, schedule: Q01DX005 (ip), vehicle: Klucel (hydroxypropylcellulose) (HPC)",99 % of control
same,T/C,"dose: 120.0 mg/kg/injection, schedule: Q01DX005 (ip), vehicle: Klucel (hydroxypropylcellulose) (HPC)",96 % of control
same,T/C,"dose: 240.0 mg/kg/injection, schedule: Q01DX005 (ip), vehicle: Klucel (hydroxypropylcellulose) (HPC)",99 % of control
CCCCNP(=O)(N1CC1)N1CC1,T/C,"dose: 0.2 mg/kg/injection, schedule: Q04DX003 (ip), vehicle: saline",95 % of control
same,T/C,"dose: 0.4 mg/kg/injection, schedule: Q04DX003 (ip), vehicle: saline",104 % of control
same,T/C,"dose: 0.8 mg/kg/injection, schedule: Q04DX003 (ip), vehicle: saline",118 % of control
same,T/C,"dose: 6.0 mg/kg/injection, schedule: Q04DX003 (ip), vehicle: saline",195 % of control
same,T/C,"dose: 6.25 mg/kg/injection, schedule: Q01DX009 (ip), vehicle: saline",172 % of control
same,T/C,[1],154 % of control
same,T/C,[2],118 % of control
same,T/C,"dose: 12.5 mg/kg/injection, schedule: Q04DX003 (ip), vehicle: saline",172 % of control
same,T/C,"dose: 25.0 mg/kg/injection, schedule: Q04DX003 (ip), vehicle: saline",86 % of control
COc1c(OC(C)=O)ccc2c1C=CCCC2=O,T/C,[3],104 % of control
same,T/C,[4],102 % of control
same,T/C,[5],102 % of control
Nc1ncc(S(=O)(=O)c2ccc([N+](=O)[O-])cc2)c(N)n1,T/C,"dose: 75.0 mg/kg/injection, schedule: Q01DX009 (ip), vehicle: suspension in saline",96 % of control
same,T/C,"dose: 150.0 mg/kg/injection, schedule: Q01DX009 (ip), vehicle: suspension in saline",98 % of control
same,T/C,"dose: 300.0 mg/kg/injection, schedule: Q01DX009 (ip), vehicle: suspension in saline",92 % of control
CC(=O)OCC(Br)C(Br)COC(C)=O (stereo not given),T/C,"dose: 100.0 mg/kg/injection, schedule: Q04DX003 (ip), vehicle: saline with Tween-80",100 % of control
same,T/C,"dose: 200.0 mg/kg/injection, schedule: Q04DX003 (ip), vehicle: saline with Tween-80",100 % of control
same,T/C,[6],100 % of control
CCOC(=O)Cc1csc(=S)n1C,T/C,[7],102 % of control
same,T/C,[8],109 % of control
same,T/C,[9],109 % of control
CCn1c2ccccc2n2c(=O)c(Cc3ccccc3)c(C)c(C#N)c12,T/C,"dose: 15.0 mg/kg/injection, schedule: Q01DX005 (ip), vehicle: saline with Tween-80",92 % of control
same,T/C,"dose: 30.0 mg/kg/injection, schedule: Q01DX005 (ip), vehicle: saline with Tween-80",91 % of control
same,T/C,[10],88 % of control and 89 % of control
same,T/C,[11],86 % of control
CN(C)C(CCC(=O)O)C(=O)O (stereo not given),T/C,[12],102 % of control
same,T/C,[13],97 % of control
same,T/C,[14],98 % of control
CCCCCCCCCCCCCCCC(=O)N(CCCCN(C(=O)CCCCCCCCCCCCCCC)C(C)CCCN(CC)CC)C(C)CCCN(CC)CC (stereo not given),T/C,"dose: 25.0 mg/kg/injection, schedule: Q01DX009 (ip), vehicle: other",93 % of control
same,T/C,"dose: 50.0 mg/kg/injection, schedule: Q01DX009 (ip), vehicle: other",93 % of control
CCCCN(CCCC)CCNc1ccc(C)c2sc3cc(C)ccc3c(=O)c12,T/C,[7],116 % of control
same,T/C,[8],102 % of control
same,T/C,[9],98 % of control
O=C(Nc1ccc(Cl)c(Cl)c1)Sc1ccc(O)cc1,T/C,[2],91 % of control
same,T/C,[15],91 % of control
same,T/C,[16],96 % of control
same,T/C,[17],117 % of control
same,T/C,[3],91 % of control
O=C1C(=O)N(c2cccc(Cl)c2)C(=O)N1Cc1ccccc1,T/C,[18],98 % of control
same,T/C,"dose: 100.0 mg/kg/injection, schedule: Q01DX009 (ip), vehicle: Klucel (hydroxypropylcellulose) (HPC)",104 % of control
same,T/C,"dose: 200.0 mg/kg/injection, schedule: Q01DX009 (ip), vehicle: Klucel (hydroxypropylcellulose) (HPC)",104 % of control
O=C(N/N=C(/C(=N/NC(=O)c1ccccc1)c1ccccc1)c1ccccc1)c1ccccc1,T/C,[3],100 % of control
same,T/C,[4],95 % of control
same,T/C,[5],90 % of control
Cn1c(=O)oc2c(Br)cc(Br)cc21,T/C,"dose: 50.0 mg/kg/injection, schedule: Q04DX002 (ip), vehicle: Klucel (hydroxypropylcellulose) (HPC)",101 % of control
same,T/C,"dose: 100.0 mg/kg/injection, schedule: Q04DX002 (ip), vehicle: Klucel (hydroxypropylcellulose) (HPC)",104 % of control
same,T/C,"dose: 200.0 mg/kg/injection, schedule: Q04DX002 (ip), vehicle: Klucel (hydroxypropylcellulose) (HPC)",101 % of control
Cc1c2ccccc2c(C)c2c1cc(C(=O)O)c1ccccc12,T/C,"dose: 25.0 mg/kg/injection, schedule: Q01DX005 (ip), vehicle: saline with Tween-80",113 % of control
same,T/C,[7],113 % of control and 116 % of control
same,T/C,[9],124 % of control
CCOC(=O)c1c[nH]n(Cc2ccccc2)c1=O,T/C,[10],100 % of control
same,T/C,[19],100 % of control
same,T/C,[11],95 % of control
COc1ccc(NC(=O)/N=C2\CN(C(=O)c3c(F)cccc3F)C(=O)N2c2ccc(OC)cc2)cc1,T/C,[10],87 % of control
same,T/C,[19],89 % of control
same,T/C,[11],103 % of control
Nc1nc(-c2ccc(Cl)cc2)cc(-c2cc(-c3ccc(Cl)cc3)nc(N)n2)n1,T/C,"dose: 60.0 mg/kg/injection, schedule: Q01DX005 (ip), vehicle: saline",110 % of control
same,T/C,"dose: 120.0 mg/kg/injection, schedule: Q01DX005 (ip), vehicle: saline",102 % of control
same,T/C,"dose: 240.0 mg/kg/injection, schedule: Q01DX005 (ip), vehicle: saline",100 % of control
O=[N+]([O-])c1ccc(S/N=C\c2ccccc2)c([N+](=O)[O-])c1,T/C,[16],97 % of control
CC1CCN(C(=S)NNC(C)c2cc3ccccc3cn2)CC1 (stereo not given),T/C,"dose: 6.25 mg/kg/injection, schedule: Q01DX005 (ip), vehicle: saline with Tween-80",114 % of control
N#Cc1ccccc1NC(=O)Nc1ccc(Cc2ccc(NC(=O)Nc3ccccc3C#N)cc2)cc1,T/C,[10],97 % of control
same,T/C,[19],97 % of control
same,T/C,[11],93 % of control
O=c1[nH]c2c(cnn2-c2ccc(Cl)cc2)c(=O)n1-c1cccc(Cl)c1,T/C,"dose: 12.5 mg/kg/injection, schedule: Q01DX009 (ip), vehicle: Klucel (hydroxypropylcellulose) (HPC)",88 % of control
same,T/C,"dose: 25.0 mg/kg/injection, schedule: Q01DX009 (ip), vehicle: Klucel (hydroxypropylcellulose) (HPC)",94 % of control
same,T/C,[18],100 % of control
O=C1NC(CO)C(=O)N2CCCC12 (stereo not given),T/C,[2],100 % of control
same,T/C,[15],99 % of control
same,T/C,[17],99 % of control
COC(=O)C1C[S][Sn]2([NH]1)[NH]C(C(=O)OC)C[S]2 (stereo not given),T/C,"dose: 50.0 mg/kg/injection, schedule: Q01DX005 (ip), vehicle: Klucel (hydroxypropylcellulose) (HPC)",108 % of control
same,T/C,"dose: 100.0 mg/kg/injection, schedule: Q01DX005 (ip), vehicle: Klucel (hydroxypropylcellulose) (HPC)",106 % of control
same,T/C,"dose: 200.0 mg/kg/injection, schedule: Q01DX005 (ip), vehicle: Klucel (hydroxypropylcellulose) (HPC)",101 % of control
OC(CO/N=C1\CCc2ccccc21)CN1CCOCC1 (stereo not given),T/C,[12],105 % of control
same,T/C,[13],104 % of control
same,T/C,[14],104 % of control
CCCCOCN(CCCc1ccccc1)COCCCC,T/C,"dose: 12.5 mg/kg/injection, schedule: Q01DX009 (ip), vehicle: saline with Tween-80",89 % of control
same,T/C,"dose: 25.0 mg/kg/injection, schedule: Q01DX009 (ip), vehicle: saline with Tween-80",102 % of control
same,T/C,[16],118 % of control
C=C1CC(OC(C)=O)/C=C(/C)CCC(C(C)(C)O)CC1O (stereo not given),T/C,"dose: 14.5 mg/kg/injection, schedule: Q01DX005 (ip), vehicle: Klucel + Tween-80",96 % of control
same,T/C,"dose: 29.0 mg/kg/injection, schedule: Q01DX005 (ip), vehicle: Klucel + Tween-80",96 % of control
same,T/C,"dose: 58.0 mg/kg/injection, schedule: Q01DX005 (ip), vehicle: Klucel + Tween-80",97 % of control
same,T/C,"dose: 116.0 mg/kg/injection, schedule: Q01DX005 (ip), vehicle: Klucel + Tween-80",100 % of control
C[C@@H]1CN(C(=O)CCOS(C)(=O)=O)[C@@H](C)CN1C(=O)CCOS(C)(=O)=O,T/C,"dose: 3.13 mg/kg/injection, schedule: Q04DX003 (ip), vehicle: saline",113 % of control
same,T/C,[1],122 % of control
same,T/C,"dose: 264.0 mg/kg/injection, schedule: Q04DX003 (ip), vehicle: saline with Tween-80",218 % of control
same,T/C,[6],118 % of control
